“Also recorded” adds a separate entry of the source.
Assays:
endothelial NO = assay: Endothelial NO by ESR and Fe(DETC)2 in Ang II-infused mice; format: in vivo; conditions: 0.1 g/L in drinking water, ESR
Method: (§1) (A) Aortic […] was measured by DHE probe and HPLC. (B) Endothelial NO was analyzed by ESR and Fe(DETC)2. C57Bl/6J mice were infused with Ang II ([…]) and mito2HOBA was provided in the drinking water (0.1 g/L).
(§2) The present inventors examined vascular oxidative stress by measurements of aortic ? using fluorescent ? probe DHE and HPLC, and analysis of endothelial NO using Electron Spin Resonance and specific NO spin trap Fe(DETC)2.
(§3) Among the other actions O2^• inactivates endothelial nitric oxide (NO), promotes vasoconstriction and vascular remodeling and ultimately increases systemic vascular resistance. Decreased NO bioavailability is therefore a hallmark of endothelial oxidative stress in hypertension due to NO oxidation, reduced NO production and eNOS uncoupling. We measured aortic O2^• using the fluorescent O2^• probe DHE and HPLC as we described previously. Endothelial NO was quantified by Electron Spin Resonance (ESR) and specific NO spin trap Fe(DETC)2.

[1] = system: human aortic endothelial cells (HAEC); assay: Cardiolipin oxidation in HAEC incubated with Ang II plus TNFα (LC/MS); format: cell-based; conditions: 50 nM, Ang II + TNFα 24 hours
Method: (§4) Free radical oxidation of arachidonic acid produces highly reactive isolevuglandins (isoLG) which causes mitochondrial dysfunction by opening of the mitochondrial permeability transition pore (mPTP). […] The functional role of mitochondrial isoLG was tested in vivo using angiotensin II model of hypertension. C57Bl/6J mice were infused with angiotensin II (0.7 mg/kg/day) or saline (Sham) and received mito2HOBA in the drinking water (0.1 g/L). […] Decrease of NO is a hallmark of endothelial dysfunction in hypertension due to vascular oxidative stress.
(§5) Mitochondrial O2^• and cardiolipin oxidation (specific marker of mitochondrial dysfunction and oxidative stress) in cultured human aortic endothelial cells (HAEC) were incubated with Ang II and TNFα.

[2] = system: isoLG-Lysyl-Lactam protein adducts; assay: LC/MS/MS of isoLG-Lys-Lactam protein adducts in kidney mitochondria of Ang II-infused mice; format: in vivo; conditions: 0.1 g/L in drinking water
Method: (A) Representative LC/MS/MS chromatograms; (B) isoLG-Lys-Lactam levels in mitochondria isolated from kidneys of mice drinking water (Sham), mito2HOBA (0.1 g/L), and infused with Ang II (0.7 mg/kg/day). Results are mean±SEM (n=3). *P<0.05 vs Ang II.

mice = assay: Tolerability in mice receiving compound in drinking water; format: in vivo
[3] = system: Ang II-infused C57Bl/6J mice; assay: Blood pressure in angiotensin II-induced hypertension, mito2HOBA in drinking water; format: in vivo; conditions: Ang II 0.7 mg/kg/day, compound 0.1 g/L in drinking water
Method: (§6) (A) Blood pressure in C57Bl/6J mice infused with saline (Sham) or Ang II ([…]). Mito2HOBA was supplemented in drinking water (0.1 g/L). (B) Western blot of aorta mitochondria for isoLG adducts (D11 antibody), CypD, GCN5L1, Sirt3 and CypD acetylation (CypD i.p. and anti-Acetyl-K WB). Results are mean±SEM. *P<0.01 vs Sham, **P<0.01 vs Ang II (n=8).
(A) Blood pressure in C57Bl/6J wild type mice infused with either saline (Sham) or Ang II ([…]). Mito2HOBA was supplemented in drinking water (0.1 g/L). (B) Mitochondrial isoLG were measured by Western blot in the heart mitochondria using D11 antibody as we have previously described. Results are mean±SEM. *P<0.01 vs Sham, **P<0.01 vs Ang II (n=8).
(§7) Sham or Ang II-infused mice were supplemented with mito2HOBA in the drinking water (0.1 g/L) or plain water. […] Following 14 days of Ang II infusion, mice were sacrificed, aortas were isolated for Western blot studies. […] This causes an imbalance between mitochondrial acetylation and deacetylation pathways leading to hyperacetylation of mitochondrial proteins measured by Ac-K and CypD hyperacetylation.
The present inventors implanted an osmotic minipump with Ang II (0.7 mg/kg/day) or saline (Sham) in C57Bl/6J mice receiving mito2HOBA in the drinking water (0.1 g/L) or plain water. […]

[4] = system: human aortic endothelial cells (HAEC); assay: Mitochondrial superoxide in HAEC incubated with Ang II plus TNFα (MitoSOX/HPLC); format: cell-based; conditions: 50 nM, Ang II + TNFα 24 hours, MitoSOX/HPLC
Method: as §4, §5

[5] = system: mitochondrial isoLG protein adducts; assay: Western blot of isoLG adducts (D11 antibody) in heart mitochondria of Ang II-infused mice; format: in vivo; conditions: 0.1 g/L in drinking water, 14 days
Method: Mito2HOBA was supplemented in drinking water (0.1 g/L). […] Results are mean±SEM. *P<0.01 vs Sham, **P<0.01 vs Ang II (n=8).
as §4

aortic superoxide = assay: Aortic superoxide by DHE probe and HPLC in Ang II-infused mice; format: in vivo; conditions: 0.1 g/L in drinking water
Method: as §1, §2, §3

kidney mitochondria = conditions: Ang II-infused mice, 0.1 g/L in drinking water
Method: C57Bl/6J mice were infused with Ang II ([…]) and mito2HOBA in the drinking water (0.1 g/L). Following 14 days of Ang II infusion the animals were sacrificed and kidneys were isolated for mitochondrial studies. […] Respiratory control ratio (State 3/State 4) was measured in isolated kidney mitochondria with glutamate and malate […]. Control level is 100%. (B) Kidney ATP was measured in freshly isolated tissue by luciferase-based luminescent assay. Results are mean±SEM. *P<0.01 vs Sham, **P<0.01 vs Ang II (n=3-8).
(A) Respiratory control ratio (State 3/State 4) was measured in isolated kidney mitochondria with glutamate and malate. Control level is 100%. (B) Kidney ATP level was measured in freshly isolated tissue by luciferase-based luminescent assay. C57Bl/6J mice were infused with Ang II ([…]) and mito2HOBA was provided in the drinking water (0.1 g/L). Following 14 days of Ang II infusion the animals were sacrificed and kidneys were isolated for mitochondrial and ATP studies. Results are mean±SEM. *P<0.01 vs Sham, **P<0.01 vs Ang II (n=3-8).
The inventors analyzed kidney tissue isolated from control mice (Sham), mice drinking mito2HOBA, mice infused with Ang II and Ang II-infused mice supplemented with mito2HOBA (mito2HOBA+Ang II).
To show this, the present inventors analyzed kidney tissue isolated from control mice (Sham), mice drinking mito2HOBA (mito2HOBA), mice infused with Ang II (Ang II) and Ang II-infused mice supplemented with mito2HOBA (mito2HOBA+Ang II).

[6] = Method: as §4
The above example is a water soluble compound which can be supplied to cells in the media and provided to animals in the drinking water.

[7] = system: human aortic endothelial cells (HAECs); assay: Tolerability in cultured HAEC; format: cell-based
[8] = system: mitochondrial isoLG protein adducts; assay: Western blot of isoLG adducts and CypD-isoLG (D11 antibody) in aorta mitochondria of Ang II-infused mice; format: in vivo
Method: as §6
FIG. 18 is a western blot analysis of isoLG protein adducts in mitochondria isolated from aorta dissected from C57Bl/6J mice infused with Ang II and treated with mito2HOBA (A). CypD-isoLG modification was determined by CypD immunoprecipitation and Western blot with anti-isoLG D11 antibody (B).
as §7
The potential CypD-isoLG adduct formation was determined by CypD immunoprecipitation and Western blot with anti-isoLG D11 antibody.

CypD acetylation = assay: Western blot of aorta mitochondria for GCN5L1, Sirt3, Ac-K and CypD acetylation in Ang II-infused mice; format: in vivo; conditions: 0.1 g/L in drinking water; for CypD acetylation: CypD i.p. and anti-Acetyl-K WB
Method: as §6, §7
Hypertension impairs mitochondrial function and mito2HOBA attenuates mitochondrial dysfunction, and accumulation of mitochondrial isoLG in hypertension promotes CypD acetylation and mPTP opening, impairs mitochondrial respiration and reduces ATP. Scavenging of mitochondrial isoLG with mito2HOBA prevents these deleterious effects. The inventors analyzed kidney tissue isolated from control mice (Sham), mice drinking mito2HOBA, mice infused with Ang II and Ang II-infused mice supplemented with mito2HOBA (mito2HOBA+Ang II).

mitochondrial matrix = conditions: TPP conjugate, given as example; cited from earlier work

## 4-(aminomethyl)-3-hydroxyphenoxy) butyl)triphenylphosphonium [mito2HOBA]
Endothelial NO
  endothelial NO: preserved endothelial NO; also recorded: preserves NO bioavailability
[1]
  cardiolipin oxidation: prevented cardiolipin oxidation
[1]; listed as Mito2HOBA
  cardiolipin oxidation: more effective in prevention of cardiolipin oxidation than 2HOBA
[2]
  isoLG-Lysyl-Lactam protein adducts in kidney mitochondria: abolished isoLG-Lysyl-Lactam adducts formation
mice
  tolerability by mice receiving it in drinking water: well tolerated
mice; preliminary in vivo experiments
  dose in drinking water well tolerated: 0.1 to 0.3 g/L
[3]
  Ang II-induced hypertension (blood pressure): significantly attenuates
[3]; listed as Mito2HOBA
  Ang II-induced hypertension (blood pressure): significantly attenuated
[4]
  mitochondrial superoxide production / mitochondrial oxidative stress: inhibited; also recorded: diminished mitochondrial oxidative stress; also recorded: inhibition of mitochondrial oxidative stress
[5]
  isoLG adducts in heart mitochondria: reduced accumulation of isoLG adducts
Aortic superoxide
  vascular (aortic) superoxide: reduced; also recorded: reduces vascular O2^•
Kidney mitochondria; 14 days
  mPTP opening (Ca2+ retention capacity) in kidney mitochondria: attenuates mPTP opening; also recorded: reduces mPTP opening
Kidney mitochondria; kidney mitochondria with glutamate and malate
  mitochondrial respiration (respiratory control ratio State 3/State 4): protects mitochondrial respiration
Kidney mitochondria; luciferase-based luminescent assay
  kidney ATP: preserves normal ATP production
[6]
  water solubility: water soluble
[7]
  tolerability by cultured HAECs: well tolerated
[7]; preliminary in vitro experiments
  concentration well tolerated by cultured HAECs: up to 200 nM
[8]; Ang II-infused mice, 0.1 g/L in drinking water, 14 days, D11 antibody
  isoLG adducts in aorta mitochondria: prevents accumulation of isoLG adducts; also recorded: attenuated accumulation of mitochondrial isoLG
[8]; CypD immunoprecipitation and Western blot with D11 antibody
  protein isoLG adducts and CypD-isoLG in aortic mitochondria: diminished
CypD acetylation
  balance between GCN5L1 and Sirt3 in aorta mitochondria: corrects the imbalance between GCN5L1 and Sirt3
  mitochondrial Ac-K (acetylation of mitochondrial proteins): reduces mitochondrial Ac-K
  CypD acetylation: reduced CypD acetylation
CypD acetylation; listed as Mito2HOBA
  CypD acetylation: prevents CypD hyperacetylation

## CC1(C)CC(NC(=O)C[P+](c2ccccc2)(c2ccccc2)c2ccccc2)CC(C)(C)N1[O] [mitoTEMPO]
Mitochondrial matrix
  concentration within the mitochondrial matrix: more than a five hundred-fold

Reference: patent US20220162240A1, “MITOCHONDRIA-TARGETED ISOKETAL/ISOLEVUGLANDIN SCAVENGERS” (Vanderbilt University, priority 2019, published 2022)
